From patent publication US20260116868A1 (Arcus Biosciences, Inc., priority 2023, published 2026) come the findings set out here.

Some results are limits rather than exact numbers.

The subject of one experiment is Jurkat cells. Kind of experiment: IL-2 secretion assay in Jurkat cells activated with CD3/CD28 T Cell Activator. The experiment is classed as cell-based. The settings on record: Homo sapiens; Jurkat cells, CD3/CD28 T Cell Activator, 24 h, IL-2 AlphaLISA; read-out: IL-2 Secretion (EC50). Here is the method:
Certain compounds were also evaluated in an IL-2 secretion assay. On the day of the assay, a 16 point, 1:2 master serial dilution of each compound was prepared in Opti-MEM to span a final concentration range of 10 μM to 300 pM. Assays were set up in CORNING® tissue culture-treated 384-well microplates containing 60 nL of each dilution. Jurkat cells grown in RPMI-1640 supplemented with 10% FBS, 1% Glutamax, and 1% Pen/Strep were collected, resuspended in Opti-MEM. 50,000 cells/well and added to the compound plates. After a short spin (1200 rpm for 1 min), the plates were incubated at 37° C. for 1 hour. The cells were activated by adding 15 μL of IMMUNOCULT™ Human CD3/CD28 T Cell Activator (STEMCELL Technologies) diluted in Opti-MEM. After 24 h of incubation at 37° C., aliquots of culture supernatants were transferred to OptiPlate-384 (PerkinElmer) microplates. The level of IL-2 secretion in the supernatants was then determined using the IL-2 (human) AlphaLISA Detection Kit (PerkinElmer) according to the manufacturer's recommendations. The AlphaLISA signal was measured using an EnVision plate reader (PerkinElmer). EC50 values were determined by fitting the data to a standard 4-parameter logistic equation. See Table 7 for data for select compounds (IL-2 Secretion (EC50)).

The next experiment has as its target T1, Cbl-b (Homo sapiens, UniProt Q13191).
T1 construct: biotin (biotinylated protein)
Kind of experiment: Cbl-b probe displacement HTRF binding assay. The settings on record: 0.4 nM Cbl-b, 150 nM BODIPY probe. An outline of the steps: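 Compound competes with BODIPY probe (150 nM) for biotinylated Cbl-b (0.4 nM) in HEPES/NaCl/Triton/TCEP/BSA buffer; 60 min preincubation, 15 min with probe, room temperature. Tb-streptavidin HTRF read; % displacement vs DMSO and no-protein controls, IC50 from four-parameter fit.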

T1 sequence (Q13191 whole entry, species assumed): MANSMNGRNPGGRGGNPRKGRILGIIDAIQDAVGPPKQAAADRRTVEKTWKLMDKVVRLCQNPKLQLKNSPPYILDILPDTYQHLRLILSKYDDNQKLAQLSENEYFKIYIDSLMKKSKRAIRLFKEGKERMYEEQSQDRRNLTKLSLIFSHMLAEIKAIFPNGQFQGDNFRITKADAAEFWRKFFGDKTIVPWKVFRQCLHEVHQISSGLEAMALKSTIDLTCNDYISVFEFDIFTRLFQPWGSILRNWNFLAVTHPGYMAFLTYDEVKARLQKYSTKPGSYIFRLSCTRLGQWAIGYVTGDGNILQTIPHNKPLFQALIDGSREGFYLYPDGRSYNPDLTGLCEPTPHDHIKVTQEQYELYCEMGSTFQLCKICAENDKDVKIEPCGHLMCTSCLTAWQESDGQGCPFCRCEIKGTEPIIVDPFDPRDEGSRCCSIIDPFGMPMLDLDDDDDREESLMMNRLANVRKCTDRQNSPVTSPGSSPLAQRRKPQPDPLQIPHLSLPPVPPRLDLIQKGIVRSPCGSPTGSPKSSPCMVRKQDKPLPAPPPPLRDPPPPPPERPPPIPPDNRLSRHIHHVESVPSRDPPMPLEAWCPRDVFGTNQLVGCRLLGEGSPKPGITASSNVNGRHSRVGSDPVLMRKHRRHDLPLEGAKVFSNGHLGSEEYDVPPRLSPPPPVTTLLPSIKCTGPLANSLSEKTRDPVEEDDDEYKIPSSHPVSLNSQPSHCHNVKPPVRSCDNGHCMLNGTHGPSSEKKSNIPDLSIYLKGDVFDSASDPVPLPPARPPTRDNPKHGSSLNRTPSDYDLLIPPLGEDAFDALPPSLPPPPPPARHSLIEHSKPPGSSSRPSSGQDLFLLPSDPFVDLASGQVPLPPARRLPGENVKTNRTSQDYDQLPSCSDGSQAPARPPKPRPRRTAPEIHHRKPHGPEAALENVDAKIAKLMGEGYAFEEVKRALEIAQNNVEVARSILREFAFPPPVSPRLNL

As for `C[C@H]1CCCN(Cc2cc(C(=O)Nc3cc(-c4ccc(C#N)cc4-c4nncn4C(F)F)cc(N)n3)c(=O)n(C3CC3)c2)C1` [Example 8, N-(6-amino-4-{4-cyano-2-[4-(difluoromethyl)-4H-1,2,4-triazol-3-yl]phenyl}-2-pyridyl)-5-{[(S)-3-methyl-1-piperidyl]methyl}-1-cyclopropyl-2-oxo-1,2-dihydronicotinamide], the EC50 (as a rule, the midpoint of the concentration-response curve) with Jurkat cells lay in the range of 100 to 1000 nM. The IC50 (in general, the concentration that inhibits the measured activity by half) at Cbl-b is below 100 nM.

Regarding `N#Cc1ccc(-c2cc(NC(=O)c3cc(CNCCOC(F)(F)F)cn(C4CC4)c3=O)nc(C3CC3)c2)c(-c2nncn2C(F)F)c1` [Example 9, N-(4-{4-cyano-2-[4-(difluoromethyl)-4H-1,2,4-triazol-3-yl]phenyl}-6-cyclopropyl-2-pyridyl)-1-cyclopropyl-2-oxo-5-[(2-trifluoromethoxyethylamino)methyl]-1,2-dihydronicotinamide], the half-maximal effective concentration (EC50) in the experiment on Jurkat cells is below 100 nM. For the same compound, on Cbl-b, the IC50 was below 100 nM.

Turning to `CC1(NCc2cc(C(=O)Nc3cc(-c4ccc(C#N)cc4-c4nncn4C(F)F)cc(C4CC4)n3)c(=O)n(C3CC3)c2)CCC1` [Example 10, N-(4-{4-cyano-2-[4-(difluoromethyl)-4H-1,2,4-triazol-3-yl]phenyl}-6-cyclopropyl-2-pyridyl)-1-cyclopropyl-5-[(1-methylcyclobutylamino)methyl]-2-oxo-1,2-dihydronicotinamide], the EC50 with Jurkat cells is below 100 nM. Moreover, the IC50 at Cbl-b is below 100 nM.

Consider `N#Cc1ccc(-c2cc(NC(=O)c3cc(CN4C[C@H]5CC[C@@H]4C5)cn(C4CC4)c3=O)nc(C3CC3)c2)c(-c2nncn2C(F)F)c1` [Example 11, N-(4-{4-cyano-2-[4-(difluoromethyl)-4H-1,2,4-triazol-3-yl]phenyl}-6-cyclopropyl-2-pyridyl)-5-({(1R,4S)-2-azabicyclo[2.2.1]hept-2-yl}methyl)-1-cyclopropyl-2-oxo-1,2-dihydronicotinamide], for which, in the experiment with Jurkat cells, the EC50 was 100 to 1000 nM. The concentration for half-maximal inhibition (IC50) at Cbl-b is below 100 nM.

`COCC1(NCc2cc(C(=O)Nc3cc(-c4ccc(C#N)cc4-c4nncn4C(F)F)cc(C4CC4)n3)c(=O)n(C3CC3)c2)CCC1` [Example 12, N-(4-{4-cyano-2-[4-(difluoromethyl)-4H-1,2,4-triazol-3-yl]phenyl}-6-cyclopropyl-2-pyridyl)-1-cyclopropyl-5-{[1-(methoxymethyl)cyclobutylamino]methyl}-2-oxo-1,2-dihydronicotinamide]: the EC50 in the experiment with Jurkat cells was in the range of 100 to 1000 nM. The same compound displayed an IC50 at Cbl-b below 100 nM.

`COCCNCc1cc(C(=O)Nc2cc(-c3ccc(C#N)cc3-c3nncn3C(F)F)cc(C3CC3)n2)c(=O)n(C2CC2)c1` [Example 14, N-(4-{4-cyano-2-[4-(difluoromethyl)-4H-1,2,4-triazol-3-yl]phenyl}-6-cyclopropyl-2-pyridyl)-1-cyclopropyl-5-[(2-methoxyethylamino)methyl]-2-oxo-1,2-dihydronicotinamide]: the EC50 in the experiment with Jurkat cells was below 100 nM. The compound further registered an IC50 on Cbl-b below 100 nM.

On to `Cn1cnnc1-c1cc(F)ccc1-c1cc(NC(=O)c2cc(CNCCC(F)(F)F)cn(C3CC3)c2=O)nc(C2CC2)c1` [Example 15, N-{6-cyclopropyl-4-[4-fluoro-2-(4-methyl-4H-1,2,4-triazol-3-yl)phenyl]-2-pyridyl}-1-cyclopropyl-2-oxo-5-[(3,3,3-trifluoropropylamino)methyl]-1,2-dihydronicotinamide], for which the EC50 with Jurkat cells is below 100 nM. Further, the IC50 at Cbl-b was below 100 nM.

For `CO[C@H]1CCN(Cc2cc(C(=O)Nc3cc(-c4ccc(F)cc4-c4nncn4C)cc(C4CC4)n3)c(=O)n(C3CC3)c2)C1` [Example 16, N-{6-cyclopropyl-4-[4-fluoro-2-(4-methyl-4H-1,2,4-triazol-3-yl)phenyl]-2-pyridyl}-5-{[(S)-3-methoxy-1-pyrrolidinyl]methyl}-1-cyclopropyl-2-oxo-1,2-dihydronicotinamide], the EC50 in the experiment on Jurkat cells was in the range of 100 to 1000 nM. Besides, the concentration for half-maximal inhibition (IC50) on Cbl-b was below 100 nM.

Take `CO[C@@H](C)CNCc1cc(C(=O)Nc2cc(-c3ccc(F)cc3-c3nncn3C)cc(C3CC3)n2)c(=O)n(C2CC2)c1` [Example 17, N-{6-cyclopropyl-4-[4-fluoro-2-(4-methyl-4H-1,2,4-triazol-3-yl)phenyl]-2-pyridyl}-5-{[(S)-2-methoxypropylamino]methyl}-1-cyclopropyl-2-oxo-1,2-dihydronicotinamide]: the EC50 with Jurkat cells is below 100 nM. Moreover, the IC50 on Cbl-b is below 100 nM.

For the compound `COC[C@H](C)NCc1cc(C(=O)Nc2cc(-c3ccc(F)cc3-c3nncn3C)cc(C3CC3)n2)c(=O)n(C2CC2)c1` [Example 18, N-{6-cyclopropyl-4-[4-fluoro-2-(4-methyl-4H-1,2,4-triazol-3-yl)phenyl]-2-pyridyl}-5-{[(S)-2-methoxy-1-methylethylamino]methyl}-1-cyclopropyl-2-oxo-1,2-dihydronicotinamide], the EC50 with Jurkat cells is below 100 nM. On Cbl-b, this compound returned an IC50 below 100 nM.

With `COC(F)(F)CNCc1cc(C(=O)Nc2cc(-c3ccc(F)cc3-c3nncn3C)cc(C3CC3)n2)c(=O)n(C2CC2)c1` [Example 19, N-{6-cyclopropyl-4-[4-fluoro-2-(4-methyl-4H-1,2,4-triazol-3-yl)phenyl]-2-pyridyl}-1-cyclopropyl-5-[(2,2-difluoro-2-methoxyethylamino)methyl]-2-oxo-1,2-dihydronicotinamide], the EC50 in the experiment on Jurkat cells lay in the range of 100 to 1000 nM. Further, the IC50 at Cbl-b was below 100 nM.

For `CO[C@H](C)CNCc1cc(C(=O)Nc2cc(-c3ccc(F)cc3-c3nncn3C)cc(C3CC3)n2)c(=O)n(C2CC2)c1` [Example 20, N-{6-cyclopropyl-4-[4-fluoro-2-(4-methyl-4H-1,2,4-triazol-3-yl)phenyl]-2-pyridyl}-5-{[(R)-2-methoxypropylamino]methyl}-1-cyclopropyl-2-oxo-1,2-dihydronicotinamide], in the experiment with Jurkat cells, the EC50 was below 100 nM. The IC50 on Cbl-b was below 100 nM.

For the compound `COC[C@@H](C)NCc1cc(C(=O)Nc2cc(-c3ccc(F)cc3-c3nncn3C)cc(C3CC3)n2)c(=O)n(C2CC2)c1` [Example 21, N-{6-cyclopropyl-4-[4-fluoro-2-(4-methyl-4H-1,2,4-triazol-3-yl)phenyl]-2-pyridyl}-5-{[(R)-2-methoxy-1-methylethylamino]methyl}-1-cyclopropyl-2-oxo-1,2-dihydronicotinamide], the EC50 with Jurkat cells is below 100 nM. Further, the IC50 at Cbl-b is below 100 nM.

With `CO[C@@H]1CCN(Cc2cc(C(=O)Nc3cc(-c4ccc(F)cc4-c4nncn4C)cc(C4CC4)n3)c(=O)n(C3CC3)c2)C1` [Example 22, N-{6-cyclopropyl-4-[4-fluoro-2-(4-methyl-4H-1,2,4-triazol-3-yl)phenyl]-2-pyridyl}-5-{[(R)-3-methoxy-1-pyrrolidinyl]methyl}-1-cyclopropyl-2-oxo-1,2-dihydronicotinamide], the EC50 with Jurkat cells is 100 to 1000 nM. Besides, the IC50 on Cbl-b was below 100 nM.

With `CO[C@@H](C)[C@H](C)NCc1cc(C(=O)Nc2cc(-c3ccc(F)cc3-c3nncn3C)cc(C3CC3)n2)c(=O)n(C2CC2)c1` [Example 23, N-{6-cyclopropyl-4-[4-fluoro-2-(4-methyl-4H-1,2,4-triazol-3-yl)phenyl]-2-pyridyl}-5-{[(1S,2S)-2-methoxy-1-methylpropylamino]methyl}-1-cyclopropyl-2-oxo-1,2-dihydronicotinamide], the EC50 in the experiment with Jurkat cells is below 100 nM. Further, the IC50 at Cbl-b was below 100 nM.

As for `Cn1cnnc1-c1cc(F)ccc1-c1cc(NC(=O)c2cc(CNCC3(F)CCC3)cn(C3CC3)c2=O)nc(C2CC2)c1` [Example 24, N-{6-cyclopropyl-4-[4-fluoro-2-(4-methyl-4H-1,2,4-triazol-3-yl)phenyl]-2-pyridyl}-1-cyclopropyl-5-({[(1-fluorocyclobutyl)methyl]amino}methyl)-2-oxo-1,2-dihydronicotinamide], the EC50 in the experiment with Jurkat cells is below 100 nM. The IC50 on Cbl-b was below 100 nM.

Regarding `CO[C@H]1CCCN(Cc2cc(C(=O)Nc3cc(-c4ccc(F)cc4-c4nncn4C)cc(C4CC4)n3)c(=O)n(C3CC3)c2)C1` [Example 25, N-{6-cyclopropyl-4-[4-fluoro-2-(4-methyl-4H-1,2,4-triazol-3-yl)phenyl]-2-pyridyl}-5-{[(S)-3-methoxy-1-piperidyl]methyl}-1-cyclopropyl-2-oxo-1,2-dihydronicotinamide], in the experiment with Jurkat cells, the EC50 fell in the range of 100 to 1000 nM. The same compound had an IC50 at Cbl-b below 100 nM.

Take `COC1CN(Cc2cc(C(=O)Nc3cc(-c4ccc(F)cc4-c4nncn4C)cc(C4CC4)n3)c(=O)n(C3CC3)c2)C1` [Example 26, N-{6-cyclopropyl-4-[4-fluoro-2-(4-methyl-4H-1,2,4-triazol-3-yl)phenyl]-2-pyridyl}-1-cyclopropyl-5-[(3-methoxy-1-azetidinyl)methyl]-2-oxo-1,2-dihydronicotinamide]: in the experiment with Jurkat cells, the EC50 is 100 to 1000 nM. The IC50 on Cbl-b is below 100 nM.

Consider `Cn1cnnc1-c1cc(F)ccc1-c1cc(NC(=O)c2cc(-c3cc[nH]n3)cn(C3CC3)c2=O)nc(C2CC2)c1` [Example 27, N-{6-Cyclopropyl-4-[4-fluoro-2-(4-methyl-4H-1,2,4-triazol-3-yl)phenyl]-2-pyridyl}-1-cyclopropyl-2-oxo-5-(3-pyrazolyl)-1,2-dihydronicotinamide], for which the EC50 in the experiment on Jurkat cells is above 5000 nM. At Cbl-b, this compound gave an IC50 of 100 to 1000 nM.
